Experimental data published in patent publication US5574043A, “Certain [1,2,5-thiadiazol-4-yl]-1-azabicyclo [3.2.1]octane derivatives and their pharmaceutical uses” (Novo Nordisk A/S, priority 1995, dated 1996).
Structures can show the parent of a compound that is named as a salt.

molecular target: muscarinic acetylcholine receptors; test: Inhibition of specific binding of 3H-Oxotremorine-M (OXO BINDING) in vitro, rat cortex; parameters: species or system male Wistar rats; conditions: rat cortex homogenate, 3H-Oxotremorine 1.0 nM, 30 min at 25° C., pH 7.4
From the text: The pharmacological properties of the compounds of the invention can be illustrated by determining their capability to inhibit the specific binding of ^3 H-Oxotremorine-M (^3 H-Oxo). Birdsdall N. J. M., Hulme E. C., and Burgen A. S. V. (1980). "The Character of Muscarinic Receptors in Different Regions of the Rat Brain". Proc. Roy. Soc. London (Series B) 207,1.
^3 H-Oxo labels muscarinic receptor in the CNS (with a preference for agonist domains of the receptors). Three different sites are labelled by ^3 H-Oxo. […] Using the present experimental conditions only the high and medium affinity sites are determined.
The inhibitory effects of compounds on ^3 H-Oxo binding reflects the affinity for muscarinic acetylcholine receptors.
All preparations are performed at 0°-4° C. unless otherwise indicated. Fresh cortex (0.1-1 g) from male Wistar rats (150-250 g) is homogenized for 5-10 s in 10 ml 20 mM Hepes pH: 7.4, with an Ultra-Turrax homogenizer. The homogenizer, is rinsed with 10 ml of buffer and the combined suspension centrifuged for 15 min at 40,000×g. The pellet is washed three times with buffer. In each step the pellet is homogenized as before in 2×10 ml of buffer and centrifuged for 10 min at 40,000×g.
The final pellet is homogenized in 20 mM Hepes pH: 7.4 (100 ml per g of original tissue) and used for binding assay. Aliquots of 0.5 ml is added 25 μl of test solution and 25 μl of ^3 H-Oxotremorine (1.0 nM, final concentration) mixed and incubated for 30 min at 25° C. Non-specific binding is determined in triplicate using arecoline (1 μg/ml, final concentration) as the test substance. After incubation samples are added 5 ml of ice-cold buffer and poured directly onto Whatman GF/C glass fibre filters under suction and immediately washed 2 times with 5 ml of ice-cold buffer. The amount of radioactivity on the filters are determined by conventional liquid scintillation counting. Specific binding is total binding minus non specific binding.
Test substances are dissolved in 10 ml water (if necessary heated on a steam bath for less than 5 minutes) at a concentration of 2.2 mg/ml.
The test value will be given as IC50 (the concentration (ng/ml) of the test substance which inhibits the specific binding of ^3 H-Oxo by 50%).
IC50 =(applied test substance concentration) [formula] where Co is specific binding in control assays and Cx is the specific binding in the test assay. (The calculations assume normal mass-action kinetics).

Point of comparison: CCCCCSc1nsnc1[C@H]1CN2CCC[C@@H]1C2 (relative stereo) [Compound 26, Endo-6-(3-pentylthio-1,2,5-thiadiazol-4-yl)-1-azabicyclo[3.2.1]octane oxalate], “Inhibition in vitro OXO BINDING IC50” value 1.4 ng/mL. Against it:
- Clc1nsnc1[C@@H]1CN2CCC[C@@H]1C2 (relative stereo) [Compound 15, Exo-6-(3-chloro-1,2,5-thiadiazol-4-yl)-1-azabicyclo[3.2.1]octane] — 2.3-fold lower, 0.61 ng/mL
- Clc1nsnc1[C@H]1CN2CCC[C@@H]1C2 (relative stereo) [Compound 16, Endo-6-(3-chloro-1,2,5-thiadiazol-4-yl)-1-azabicyclo[3.2.1]octane-oxalate] — 48-fold higher, 67 ng/mL
- CCCCCCSc1nsnc1[C@H]1CN2CCC[C@@H]1C2 (relative stereo) [Compound 17, Endo-6-(3-hexylthio-1,2,5-thiadiazol-4-yl)-1-azabicyclo[3.2.1]octane oxalate] — 2.3-fold higher, 3.2 ng/mL
- C=CCCCCSc1nsnc1[C@H]1CN2CCC[C@@H]1C2 (relative stereo) [Compound 18, Endo-6-(3-(5-hexenylthio)-1,2,5-thiadiazol-4-yl)-1-azabicyclo[3.2.1]octane oxalate] — 5.4-fold higher, 7.5 ng/mL
- CCOc1nsnc1[C@H]1CN2CCC[C@@H]1C2 (relative stereo) [Compound 20, Endo-6-(3-ethoxy-1,2,5-thiadiazol-4-yl)-1-azabicyclo[3.2.1]octane oxalate] — 7.9-fold higher, 11 ng/mL
- Clc1nsnc1[C@@H]1CN2CC[C@@H]1C2 (relative stereo) [Compound 21, Exo-3-(3-chloro-1,2,5-thiadiazol-4-yl)-1-azabicyclo[2.2.1]heptane oxalate] — within 1.5-fold, 0.96 ng/mL
- Clc1nsnc1[C@H]1CN2CC[C@@H]1C2 (relative stereo) [Compound 22, Endo-3-(3-chloro-1,2,5-thiadiazol-4-yl)-1-azabicyclo[2.2.1]heptane oxalate] — 2.4-fold higher, 3.4 ng/mL
- COc1nsnc1[C@@H]1CN2CC[C@H]1C2 (relative stereo) [Compound 23, Endo-3-(3-methoxy-1,2,5-thiadiazol-4-yl)-1-azabicyclo[2.2.1]heptane oxalate] — 31-fold higher, 43 ng/mL
- CCCCSc1nsnc1[C@H]1CN2CCC[C@@H]1C2 (relative stereo) [Compound 24, Endo-6-(3-butylthio-1,2,5-thiadiazol-4-yl)-1-azabicyclo[3.2.1]octane oxalate] — 2.7-fold lower, 0.52 ng/mL
- CCSc1nsnc1[C@H]1CN2CCC[C@@H]1C2 (relative stereo) [Compound 25, Endo-6-(3-ethylthio-1,2,5-thiadiazol-4-yl)-1-azabicyclo[3.2.1]octane oxalate] — within 1.5-fold, 1.9 ng/mL
- c1ccc(CCCSc2nsnc2[C@H]2CN3CCC[C@@H]2C3)cc1 (relative stereo) [Compound 27, Endo-6-(3-(3-phenylpropylthio)-1,2,5-thiadiazol-4-yl)-1-azabicyclo[3.2.1]octane oxalate] — 12-fold higher, 17 ng/mL
- N#Cc1ccc(CSc2nsnc2[C@H]2CN3CCC[C@@H]2C3)cc1 (relative stereo) [Compound 28, Endo-6-(3-(4-cyanobenzylthio)-1,2,5-thiadiazol-4-yl)-1-azabicyclo[3.2.1]octane oxalate] — within 1.5-fold, 1.9 ng/mL
- CCCCCCSc1nsnc1[C@H]1CN2CCC[C@H]1C2 (relative stereo) [Compound 29, Exo-6-(3-hexylthio-1,2,5-thiadiazol-4-yl)-1-azabicyclo[3.2.1]octane oxalate] — 3.6-fold lower, 0.39 ng/mL
- CCCCSc1nsnc1[C@H]1CN2CCC[C@H]1C2 (relative stereo) [Compound 30, Exo-6-(3-butylthio-1,2,5-thiadiazol-4-yl)-1-azabicyclo[3.2.1]octane oxalate] — 11-fold lower, 0.13 ng/mL
